Results as given in paper PMC10272112 (Nature Communications, 2023).

Columns and labels:
Assay in all cases: Chemoproteomic competition pulldown assay (co-competed CoREST partner)
Format in all cases: binding
HMG20B = test system: HMG20B
Description: (§1) To identify proteins directly bound by lipoic acid, we employed a chemoproteomic competition assay. Briefly, (R/S)-LA was immobilized on sepharose beads via an amidation reaction to form an affinity matrix (abbreviated as iL; Fig. 1a). This affinity matrix can be incubated with cell lysate to pull down potential LA or LM target proteins and identify these targets via bottom-up proteomics. In a competition assay, free LA or LM were incubated with lysate at different concentrations before pulling down and quantifying target proteins. […] (Fig. 1b, see “Methods” for details). […] The lysate buffer used in this assay contains 1 mM DTT to mimic the intracellular reductive milieu and to reduce lipoic acid and LM. […] Additional competition assays performed in lung adenocarcinoma cell A549 lysate also identified HDAC1, HDAC2, and HDAC6 as targets (Supplementary Fig. 1b). Amongst the three cell lines tested, HDACs were the only confidently identified targets across the 1500–3000 proteins quantified in these assays. […] We validated the results by analogous pulldown competition assays using two other affinity matrices prepared via the immobilization of either the HDAC inhibitor Quisinostat (iQ) and an analog of the class IIa HDAC inhibitor Bürli’s 31[14] (iC)[12]. We have previously shown that these affinity matrices specifically bind to the active sites of HDACs and have used them for HDACi selectivity profiling. Indeed, binding of (R/S)-LA and (R/S)-LM to HDAC1, HDAC2, HDAC3, HDAC6, and, to a lesser extent, HDAC8 was confirmed in these assays (Supplementary Fig. 1c, d). No binding to class IIa HDACs or the recently discovered common HDAC inhibitor off-target MBLAC2 was observed (Supplementary Fig. 1e)[12]. […] This observation might reflect electrostatic repulsion between the HDAC10 active site gate-keeper glutamic acid residues[15],[16] and the terminal carboxylic acid of LA.
(§2) To assess the degree of protein depletion from lysates by the affinity matrix, a second pulldown (PDPD) with fresh beads was performed using the unbound protein fraction from the vehicle control flow through. The beads were washed (1 × 1 mL of lysis buffer without inhibitors and only 0.4% Igepal, 2 × 2 mL of lysis buffer without inhibitors and only 0.2% Igepal), and captured proteins were denatured with 8 M urea buffer, alkylated with 55 mM chloroacetamide and digested with Trypsin according to standard procedures. The resulting peptides were desalted on a C18 filter plate (Sep-Pak® tC18 µElution Plate, Waters), vacuum dried, and stored at −20 °C until LC–MSMS measurement.
(§3) For the competition assays, relative binding was calculated based on the protein intensity ratio to the DMSO control for every single inhibitor concentration. EC50 values were derived from a four-parameter log-logistic regression with variable slope (constrain: bottom > 0). The obtained EC50 values were multiplied with a protein-dependent correction factor (cf), resulting in the apparent Kd value (Kd^app). The correction factor is determined by calculating the ratio of the protein intensity of two consecutive pulldowns of the vehicle control sample[13]. Targets of the inhibitors were annotated manually according to published procedures[12],[46],[47]. […] Additionally, the number of unique peptides and MSMS counts per condition were taken into account. Positive target binding across several independent experiments performed with different cell lysates further substantiated our confidence for a true positive drug-target binding event.

RCOR3 = test system: RCOR3
Description: as §1, §2, §3

HMG20A = test system: HMG20A
Description: as §1, §2, §3

RCOR1 = test system: RCOR1
Description: as §1, §2, §3

[1] = iL, A549 lysate, log10 M -4.52288
[2] = iL, A549 lysate, log10 M -5.52288
[3] = iL, A549 lysate, log10 M -6.52288
[4] = iL, A549 lysate, log10 M -7.52288
[5] = iL, A549 lysate, log10 M -8.52288
[6] = iQ, SW620 lysate, log10 M -3.52288
[7] = iQ, SW620 lysate, log10 M -4.52288
[8] = iQ, SW620 lysate, log10 M -5.52288
[9] = iQ, SW620 lysate, log10 M -6.52288

## O=C(O)CCCCC1CCSS1 (racemic) [(R/S)-LA, (R/S)-lipoic acid]
HMG20B; iL, A549 lysate, log10 M -4
  relative binding vs DMSO: 0.09481
HMG20B; [1]
  relative binding vs DMSO: 0
HMG20B; iL, A549 lysate, log10 M -5
  relative binding vs DMSO: 0
HMG20B; [2]
  relative binding vs DMSO: 0
HMG20B; iL, A549 lysate, log10 M -6
  relative binding vs DMSO: 0.5309
HMG20B; [3]
  relative binding vs DMSO: 1.1771
HMG20B; [4]
  relative binding vs DMSO: 1.54
HMG20B; iL, A549 lysate, log10 M -8
  relative binding vs DMSO: 1.531
HMG20B; [5]
  relative binding vs DMSO: 0.9986
HMG20B; [6]
  relative binding vs DMSO: 0.2338
HMG20B; iQ, SW620 lysate, log10 M -4
  relative binding vs DMSO: 0.0385
HMG20B; [7]
  relative binding vs DMSO: 0.4714
HMG20B; iQ, SW620 lysate, log10 M -5
  relative binding vs DMSO: 0.5482
HMG20B; [8]
  relative binding vs DMSO: 0.8626
HMG20B; iQ, SW620 lysate, log10 M -6
  relative binding vs DMSO: 0.8649
HMG20B; [9]
  relative binding vs DMSO: 1.158
HMG20B; iQ, SW620 lysate, log10 M -7
  relative binding vs DMSO: 1.067
RCOR3; iL, A549 lysate, log10 M -4
  relative binding vs DMSO: 0
RCOR3; [1]
  relative binding vs DMSO: 0
RCOR3; iL, A549 lysate, log10 M -5
  relative binding vs DMSO: 0
RCOR3; [2]
  relative binding vs DMSO: 0
RCOR3; iL, A549 lysate, log10 M -6
  relative binding vs DMSO: 0.7701
RCOR3; [3]
  relative binding vs DMSO: 1.109
RCOR3; [4]
  relative binding vs DMSO: 1.217
RCOR3; iL, A549 lysate, log10 M -8
  relative binding vs DMSO: 1.199
RCOR3; [5]
  relative binding vs DMSO: 1.533
RCOR3; [6]
  relative binding vs DMSO: 0.06142
RCOR3; iQ, SW620 lysate, log10 M -4
  relative binding vs DMSO: 0.2749
RCOR3; [7]
  relative binding vs DMSO: 0.55
RCOR3; iQ, SW620 lysate, log10 M -5
  relative binding vs DMSO: 0.4741
RCOR3; [8]
  relative binding vs DMSO: 0.7307
RCOR3; iQ, SW620 lysate, log10 M -6
  relative binding vs DMSO: 0.7404
RCOR3; [9]
  relative binding vs DMSO: 0.7642
RCOR3; iQ, SW620 lysate, log10 M -7
  relative binding vs DMSO: 0.7542
HMG20A; iL, A549 lysate, log10 M -4
  relative binding vs DMSO: 0
HMG20A; [1]
  relative binding vs DMSO: 0
HMG20A; iL, A549 lysate, log10 M -5
  relative binding vs DMSO: 0
HMG20A; [2]
  relative binding vs DMSO: 0.4211
HMG20A; iL, A549 lysate, log10 M -6
  relative binding vs DMSO: 0.8299
HMG20A; [3]
  relative binding vs DMSO: 0.9993
HMG20A; [4]
  relative binding vs DMSO: 1.185
HMG20A; iL, A549 lysate, log10 M -8
  relative binding vs DMSO: 1.321
HMG20A; [5]
  relative binding vs DMSO: 1.259
HMG20A; [6]
  relative binding vs DMSO: 0.2638
HMG20A; iQ, SW620 lysate, log10 M -4
  relative binding vs DMSO: 0.07541
HMG20A; [7]
  relative binding vs DMSO: 0.5511
HMG20A; iQ, SW620 lysate, log10 M -5
  relative binding vs DMSO: 0.4652
HMG20A; [8]
  relative binding vs DMSO: 0.8795
HMG20A; iQ, SW620 lysate, log10 M -6
  relative binding vs DMSO: 0.793
HMG20A; [9]
  relative binding vs DMSO: 1.133
HMG20A; iQ, SW620 lysate, log10 M -7
  relative binding vs DMSO: 0.8444
RCOR1; iL, A549 lysate, log10 M -4
  relative binding vs DMSO: 0.04582
RCOR1; [1]
  relative binding vs DMSO: 0.0556
RCOR1; iL, A549 lysate, log10 M -5
  relative binding vs DMSO: 0.1265
RCOR1; [2]
  relative binding vs DMSO: 0.344
RCOR1; iL, A549 lysate, log10 M -6
  relative binding vs DMSO: 0.6862
RCOR1; [3]
  relative binding vs DMSO: 1.238
RCOR1; [4]
  relative binding vs DMSO: 0.8815
RCOR1; iL, A549 lysate, log10 M -8
  relative binding vs DMSO: 1.065
RCOR1; [5]
  relative binding vs DMSO: 1.673
RCOR1; iL, SW620 lysate, log10 M -3.52288
  relative binding vs DMSO: 0
RCOR1; iL, SW620 lysate, log10 M -4
  relative binding vs DMSO: 0
RCOR1; iL, SW620 lysate, log10 M -4.52288
  relative binding vs DMSO: 0.2767
RCOR1; iL, SW620 lysate, log10 M -5
  relative binding vs DMSO: 0.2629
RCOR1; iL, SW620 lysate, log10 M -5.52288
  relative binding vs DMSO: 0.4301
RCOR1; iL, SW620 lysate, log10 M -6
  relative binding vs DMSO: 0.8481
RCOR1; iL, SW620 lysate, log10 M -6.52288
  relative binding vs DMSO: 1.192
RCOR1; iL, SW620 lysate, log10 M -7
  relative binding vs DMSO: 0.8783
RCOR1; [6]
  relative binding vs DMSO: 0.1176
RCOR1; iQ, SW620 lysate, log10 M -4
  relative binding vs DMSO: 0.1659
RCOR1; [7]
  relative binding vs DMSO: 0.5043
RCOR1; iQ, SW620 lysate, log10 M -5
  relative binding vs DMSO: 0.4267
RCOR1; [8]
  relative binding vs DMSO: 0.9917
RCOR1; iQ, SW620 lysate, log10 M -6
  relative binding vs DMSO: 1.001
RCOR1; [9]
  relative binding vs DMSO: 0.9723
RCOR1; iQ, SW620 lysate, log10 M -7
  relative binding vs DMSO: 0.6892
